Reference: ChEMBL document CHEMBL1135323, “Dihydroquinolines as novel n-NOS inhibitors” (Bioorg Med Chem Lett, 2002)

Key:
Nitric oxide synthase 3 = target: T1, Nitric oxide synthase 3 (Homo sapiens, UniProt P29474); test: In vitro inhibition of endothelial nitric oxide synthase.
T1 sequence (P29474 whole entry): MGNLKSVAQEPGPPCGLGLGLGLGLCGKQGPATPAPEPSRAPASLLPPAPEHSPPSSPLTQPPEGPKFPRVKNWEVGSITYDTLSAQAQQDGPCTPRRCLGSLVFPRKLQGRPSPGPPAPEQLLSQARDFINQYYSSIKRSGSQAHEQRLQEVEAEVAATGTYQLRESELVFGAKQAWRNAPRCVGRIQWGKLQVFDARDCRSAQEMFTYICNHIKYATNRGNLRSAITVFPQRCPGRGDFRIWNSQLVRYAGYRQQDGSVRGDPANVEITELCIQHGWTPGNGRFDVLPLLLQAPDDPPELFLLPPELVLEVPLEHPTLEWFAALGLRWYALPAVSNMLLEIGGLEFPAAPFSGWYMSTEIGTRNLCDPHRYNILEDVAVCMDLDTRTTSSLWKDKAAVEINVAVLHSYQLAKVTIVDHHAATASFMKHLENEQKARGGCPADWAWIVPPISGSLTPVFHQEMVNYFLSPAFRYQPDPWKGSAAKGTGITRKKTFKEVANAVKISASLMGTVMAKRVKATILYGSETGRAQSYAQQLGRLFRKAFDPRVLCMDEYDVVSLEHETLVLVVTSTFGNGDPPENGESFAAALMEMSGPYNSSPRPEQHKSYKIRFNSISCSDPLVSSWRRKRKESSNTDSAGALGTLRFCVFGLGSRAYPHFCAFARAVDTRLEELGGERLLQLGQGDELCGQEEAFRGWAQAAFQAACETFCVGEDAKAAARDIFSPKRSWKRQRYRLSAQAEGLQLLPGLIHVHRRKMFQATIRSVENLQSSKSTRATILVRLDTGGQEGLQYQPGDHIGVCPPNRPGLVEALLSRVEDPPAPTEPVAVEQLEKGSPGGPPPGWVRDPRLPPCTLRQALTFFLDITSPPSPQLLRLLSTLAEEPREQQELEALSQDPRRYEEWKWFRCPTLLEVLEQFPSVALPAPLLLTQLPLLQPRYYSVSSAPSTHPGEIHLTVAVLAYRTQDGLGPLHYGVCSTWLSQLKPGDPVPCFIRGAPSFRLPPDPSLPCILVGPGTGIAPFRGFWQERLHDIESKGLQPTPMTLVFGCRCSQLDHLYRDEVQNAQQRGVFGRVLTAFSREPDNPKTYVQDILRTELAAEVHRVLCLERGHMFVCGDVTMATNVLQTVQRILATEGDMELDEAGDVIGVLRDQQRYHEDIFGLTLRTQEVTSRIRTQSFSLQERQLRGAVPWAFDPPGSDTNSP

[1] = target: Nitric oxide synthase, inducible (Homo sapiens, UniProt P35228); test: In vitro inhibition of inducible nitric oxide synthase.
Chain of Nitric oxide synthase, inducible (P35228 whole entry): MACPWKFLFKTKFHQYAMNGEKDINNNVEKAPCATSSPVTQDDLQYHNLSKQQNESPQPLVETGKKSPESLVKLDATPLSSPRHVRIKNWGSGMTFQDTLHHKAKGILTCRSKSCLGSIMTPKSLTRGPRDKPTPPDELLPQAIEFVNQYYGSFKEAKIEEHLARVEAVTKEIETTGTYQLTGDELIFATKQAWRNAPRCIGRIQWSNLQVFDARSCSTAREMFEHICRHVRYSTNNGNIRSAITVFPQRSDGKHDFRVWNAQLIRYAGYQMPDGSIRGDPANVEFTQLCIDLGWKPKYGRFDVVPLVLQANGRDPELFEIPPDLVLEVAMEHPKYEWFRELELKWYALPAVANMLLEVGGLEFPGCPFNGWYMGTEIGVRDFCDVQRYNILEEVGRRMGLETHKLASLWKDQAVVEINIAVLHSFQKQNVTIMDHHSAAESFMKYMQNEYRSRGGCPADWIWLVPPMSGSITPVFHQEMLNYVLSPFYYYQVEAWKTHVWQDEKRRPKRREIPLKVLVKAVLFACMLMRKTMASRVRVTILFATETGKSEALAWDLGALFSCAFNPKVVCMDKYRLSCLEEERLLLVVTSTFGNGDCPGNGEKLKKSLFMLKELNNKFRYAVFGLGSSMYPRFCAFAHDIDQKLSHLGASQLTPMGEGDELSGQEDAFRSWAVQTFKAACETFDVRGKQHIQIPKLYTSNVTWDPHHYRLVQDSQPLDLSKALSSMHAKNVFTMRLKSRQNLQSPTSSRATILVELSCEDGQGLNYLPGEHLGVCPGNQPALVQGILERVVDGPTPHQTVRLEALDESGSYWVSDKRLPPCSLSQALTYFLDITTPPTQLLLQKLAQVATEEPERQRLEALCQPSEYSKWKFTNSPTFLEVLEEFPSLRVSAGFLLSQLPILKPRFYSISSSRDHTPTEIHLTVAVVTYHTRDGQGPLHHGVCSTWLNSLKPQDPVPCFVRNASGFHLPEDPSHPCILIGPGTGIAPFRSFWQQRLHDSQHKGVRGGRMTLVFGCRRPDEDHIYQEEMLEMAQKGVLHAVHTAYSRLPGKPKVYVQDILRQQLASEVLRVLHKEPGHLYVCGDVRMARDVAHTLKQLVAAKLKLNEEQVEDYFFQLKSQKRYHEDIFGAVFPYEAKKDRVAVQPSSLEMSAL

Nitric oxide synthase 1 = Nitric oxide synthase 1 (Homo sapiens, UniProt P29475); test: Concentration required to inhibit neuronal nitric oxide synthase
Chain of Nitric oxide synthase 1 (P29475 whole entry): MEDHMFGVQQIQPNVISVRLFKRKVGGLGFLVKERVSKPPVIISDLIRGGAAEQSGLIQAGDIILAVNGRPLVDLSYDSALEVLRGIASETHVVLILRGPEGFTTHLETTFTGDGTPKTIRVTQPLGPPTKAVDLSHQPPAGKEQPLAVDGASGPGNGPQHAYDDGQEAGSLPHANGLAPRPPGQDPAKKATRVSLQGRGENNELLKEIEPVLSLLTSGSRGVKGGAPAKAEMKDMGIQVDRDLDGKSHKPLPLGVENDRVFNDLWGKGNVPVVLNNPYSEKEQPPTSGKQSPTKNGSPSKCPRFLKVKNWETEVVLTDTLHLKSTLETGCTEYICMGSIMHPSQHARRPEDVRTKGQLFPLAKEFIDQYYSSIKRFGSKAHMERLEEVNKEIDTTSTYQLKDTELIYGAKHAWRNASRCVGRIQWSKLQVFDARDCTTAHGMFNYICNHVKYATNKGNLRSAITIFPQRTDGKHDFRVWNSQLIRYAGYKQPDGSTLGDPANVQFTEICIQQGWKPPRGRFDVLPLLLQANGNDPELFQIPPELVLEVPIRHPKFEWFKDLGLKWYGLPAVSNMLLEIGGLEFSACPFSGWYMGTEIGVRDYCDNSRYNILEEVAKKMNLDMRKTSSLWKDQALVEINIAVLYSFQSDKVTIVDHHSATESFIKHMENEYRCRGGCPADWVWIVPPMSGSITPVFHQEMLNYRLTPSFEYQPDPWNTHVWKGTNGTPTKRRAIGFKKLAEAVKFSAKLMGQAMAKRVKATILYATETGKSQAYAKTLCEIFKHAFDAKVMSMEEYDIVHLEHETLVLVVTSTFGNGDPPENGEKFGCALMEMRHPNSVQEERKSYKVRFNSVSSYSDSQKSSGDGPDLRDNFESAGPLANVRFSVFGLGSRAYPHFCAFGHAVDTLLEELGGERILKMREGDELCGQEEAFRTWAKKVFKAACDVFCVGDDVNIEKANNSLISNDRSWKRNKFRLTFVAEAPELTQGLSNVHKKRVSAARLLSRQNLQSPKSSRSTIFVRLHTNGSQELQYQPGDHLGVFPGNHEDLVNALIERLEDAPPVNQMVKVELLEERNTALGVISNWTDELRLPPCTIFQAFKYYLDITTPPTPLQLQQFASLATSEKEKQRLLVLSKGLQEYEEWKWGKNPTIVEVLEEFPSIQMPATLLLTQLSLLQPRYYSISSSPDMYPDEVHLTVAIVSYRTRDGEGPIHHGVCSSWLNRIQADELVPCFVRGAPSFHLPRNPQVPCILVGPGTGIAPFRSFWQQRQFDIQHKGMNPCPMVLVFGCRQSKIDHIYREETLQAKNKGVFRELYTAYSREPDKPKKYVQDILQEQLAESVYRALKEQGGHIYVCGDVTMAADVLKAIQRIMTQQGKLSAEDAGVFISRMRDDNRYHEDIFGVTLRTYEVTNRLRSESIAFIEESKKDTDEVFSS

With `NC1=Nc2ccccc2[C@H]2COC[C@@H]12` as the compound, how does the IC50 (Nitric oxide synthase 3) read?
The IC50 was 0.96 µM.

And the IC50 [1]?
Its IC50 is 4.1 µM.

And the IC50 (Nitric oxide synthase 1)?
Its IC50 is 0.13 µM.

`COc1ccc2c(c1)N=C(N)[C@@H]1CCC[C@H]21` was tested. Which IC50 (Nitric oxide synthase 3) did it give?
The IC50 was 4.1 µM.

And the IC50 [1]?
Its IC50 is 1.4 µM.

What about the IC50 (Nitric oxide synthase 1) of the same compound?
Its IC50 is 0.24 µM.

With `NC1=Nc2cc([N+](=O)[O-])ccc2[C@H]2CCC[C@@H]12` as the compound, how does the IC50 (Nitric oxide synthase 3) read?
Its IC50 is 12 µM.

And the IC50 [1]?
The IC50 was 2.6 µM.

What about the IC50 (Nitric oxide synthase 1) of the same compound?
Its IC50 is 0.31 µM.

For `NC1=Nc2ccc([N+](=O)[O-])cc2[C@H]2CCC[C@@H]12`, which IC50 (Nitric oxide synthase 3) is on record?
Its IC50 is 34 µM.

What about the IC50 [1] of the same compound?
Its IC50 is 15 µM.

What about the IC50 (Nitric oxide synthase 1) of the same compound?
The IC50 was 0.25 µM.

How did the IC50 (Nitric oxide synthase 1) turn out when `c1ccc2c(c1)NC[C@@H]1CCC[C@H]21` was run?
The IC50 was over 200 µM.

How did the IC50 (Nitric oxide synthase 3) turn out when `NC1=Nc2c(Cl)cc(Cl)cc2[C@H]2CCC[C@@H]12` was run?
Its IC50 is over 200 µM.

And the IC50 [1]?
The IC50 was 30 µM.

What about the IC50 (Nitric oxide synthase 1) of the same compound?
The IC50 was 4.1 µM.

With `CNC1=Nc2ccccc2[C@H]2CCC[C@@H]12` as the compound, how does the IC50 (Nitric oxide synthase 1) read?
The IC50 was over 100 µM.

Which IC50 (Nitric oxide synthase 3) does the source give for `NC1=Nc2c(F)cc(Cl)cc2[C@H]2CCC[C@@H]12` here?
Its IC50 is 72 µM.

And the IC50 [1]?
The IC50 was 35 µM.

What about the IC50 (Nitric oxide synthase 1) of the same compound?
Its IC50 is 0.73 µM.

For `NC1=Nc2c(cc(Cl)c(F)c2F)[C@H]2CCC[C@@H]12`, which IC50 (Nitric oxide synthase 3) is on record?
Its IC50 is over 200 µM.

What about the IC50 [1] of the same compound?
Its IC50 is 78 µM.

And the IC50 (Nitric oxide synthase 1)?
Its IC50 is 2.1 µM.

How did the IC50 (Nitric oxide synthase 1) turn out when `NC1=Nc2ccccc2[C@H]2CCCC[C@@H]12` was run?
Its IC50 is 6.8 µM.

`NC1=Nc2c(ccc(F)c2F)[C@H]2CCC[C@@H]12` was tested. Which IC50 (Nitric oxide synthase 3) did it give?
The IC50 was 20 µM.

And the IC50 [1]?
Its IC50 is 5.1 µM.

What about the IC50 (Nitric oxide synthase 1) of the same compound?
The IC50 was 0.68 µM.

`Cc1ccc2c(c1)[C@H]1CCC[C@H]1C(N)=N2` was tested. Which IC50 (Nitric oxide synthase 3) did it give?
The IC50 was 21 µM.

And the IC50 [1]?
The IC50 was 12 µM.

What about the IC50 (Nitric oxide synthase 1) of the same compound?
Its IC50 is 0.5 µM.

With `NC1=Nc2ccc(F)cc2[C@H]2CCC[C@@H]12` as the compound, how does the IC50 (Nitric oxide synthase 3) read?
Its IC50 is 2.3 µM.

What about the IC50 [1] of the same compound?
The IC50 was 1.7 µM.

And the IC50 (Nitric oxide synthase 1)?
The IC50 was 0.11 µM.

Which results are given for `NC1=Nc2ccc(C(F)(F)F)cc2[C@H]2CCC[C@@H]12`?
IC50 (Nitric oxide synthase 3): 57 µM; IC50 [1]: 89 µM; IC50 (Nitric oxide synthase 1): 1.6 µM

How did the IC50 (Nitric oxide synthase 1) turn out when `NC1=Nc2ccccc2[C@H]2CCCCC[C@@H]12` was run?
Its IC50 is 100 µM.

With `N#Cc1ccc2c(c1)[C@H]1CCC[C@H]1C(N)=N2` as the compound, how does the IC50 (Nitric oxide synthase 3) read?
The IC50 was 54 µM.

What about the IC50 [1] of the same compound?
The IC50 was 32 µM.

And the IC50 (Nitric oxide synthase 1)?
Its IC50 is 0.64 µM.

For `Cc1ccc2c(c1)N=C(N)[C@@H]1CCC[C@H]21`, which IC50 (Nitric oxide synthase 3) is on record?
Its IC50 is 6.2 µM.

What about the IC50 [1] of the same compound?
Its IC50 is 1.1 µM.

What about the IC50 (Nitric oxide synthase 1) of the same compound?
The IC50 was 0.19 µM.

With `NC1=Nc2ccc(Cl)cc2[C@H]2CCC[C@@H]12` as the compound, how does the IC50 (Nitric oxide synthase 3) read?
The IC50 was 6.2 µM.

And the IC50 [1]?
Its IC50 is 5.7 µM.

What about the IC50 (Nitric oxide synthase 1) of the same compound?
The IC50 was 0.14 µM.

With `COC(=O)[C@@H](N)CCCNC(=N)N[N+](=O)[O-]` [L-NAME] as the compound, how does the IC50 (Nitric oxide synthase 3) read?
The IC50 was 1.5 µM.

And the IC50 [1]?
The IC50 was 8 µM.

What about the IC50 (Nitric oxide synthase 1) of the same compound?
Its IC50 is 1.6 µM.

How did the IC50 (Nitric oxide synthase 1) turn out when `NC1=Nc2ccccc2N2CCCC12` (stereo unspecified) was run?
Its IC50 is 3.3 µM.

With `NC1=Nc2ccccc2[C@H]2CCC[C@@H]12` as the compound, how does the IC50 (Nitric oxide synthase 3) read?
Its IC50 is 3.3 µM.

What about the IC50 [1] of the same compound?
Its IC50 is 2.7 µM.

And the IC50 (Nitric oxide synthase 1)?
The IC50 was 0.16 µM.

Which results are given for `NC1=Nc2ccc(Br)cc2[C@H]2CCC[C@@H]12`?
IC50 (Nitric oxide synthase 3): 17 µM; IC50 [1]: 14 µM; IC50 (Nitric oxide synthase 1): 0.31 µM

How did the IC50 (Nitric oxide synthase 3) turn out when `COc1ccc2c(c1)[C@H]1CCC[C@H]1C(N)=N2` was run?
The IC50 was 24 µM.

What about the IC50 [1] of the same compound?
Its IC50 is 13 µM.

What about the IC50 (Nitric oxide synthase 1) of the same compound?
The IC50 was 0.64 µM.

`NC1=Nc2c(F)cccc2[C@H]2CCC[C@@H]12` was tested. Which IC50 (Nitric oxide synthase 3) did it give?
The IC50 was 5.8 µM.

What about the IC50 [1] of the same compound?
Its IC50 is 2.3 µM.

What about the IC50 (Nitric oxide synthase 1) of the same compound?
Its IC50 is 0.17 µM.

How did the IC50 (Nitric oxide synthase 1) turn out when `ONC1=Nc2ccccc2[C@H]2CCC[C@@H]12` was run?
The IC50 was over 100 µM.

Which IC50 (Nitric oxide synthase 3) does the source give for `NC1=Nc2cc(F)ccc2[C@H]2CCC[C@@H]12` here?
Its IC50 is 2.3 µM.

And the IC50 [1]?
Its IC50 is 1.1 µM.

And the IC50 (Nitric oxide synthase 1)?
Its IC50 is 0.13 µM.
